Assay results: patent US20180206529A1, “FAST-DISSOLVING, CO-CRYSTALLINE FORMS OF SODIUM CHLORIDE” (NESTEC S.A., priority 2015, published 2018)

Experiments:
Format in all cases: physicochemical
[1] = Dissolution kinetics via microscopic analysis (video-microscopy of one individual crystal in water); conditions: 100-200 μm, fully immersed in 10 μL of water
Procedure: One individual crystal of sodium chloride, Glucose monohydrate, anhydrous Glucose and of (Glucose)2⋅NaCl⋅H2O co-crystal prepared according to the method of Example 3 was tested for its dissolution behavior by microscope. The analysis was performed in analogy to the method described by Quilaqueo et al. (“Dissolution of NaCl crystals in artificial saliva and water by video-microscopy”, Food Research International 69, 2015, p. 373-380).
A digital microscope was used to perform video-microscopy on the co-crystals and their respective individual components. Crystal size in general ranged between 100-200 μm. Images were recorded on a DFC450 digital microscope from Leica Microsystems with a high quality 5 Megapixel CCD sensor. The light intensity and contrast were controlled by using a VH-K20 Variable Illumination. The software used to record and analyze the video images was provided by the supplier of the module Leica LAS MultiTime.
One individual crystal specimen of sufficient quality and crystallinity was fixed on the microscope table using double-face adhesive tape. The crystal was fully immersed in 10 μL of water and the video recorded in parallel. The recording was dissected into individual film stills and the remaining crystalline area was determined until complete dissolution occurred using the respective software.
Applying this methodology, a first order kinetic was used to interpret the result:
Where At is the area (μm^2) of the remaining solid crystal at a time t (in seconds), A0 is the initial area (μm^2) of the crystal, t is the time (s) and k is the constant (s^−1).

[2] = Glucose NaCl kinetics of dissolution via refractometry; conditions: 60 mL of water, stirring, particle size 100-200 μm, average of three experiments
Procedure: The (Glucose)2⋅NaCl⋅H2O co-crystals of Example 3 were tested for their dissolution behavior by refractometry. The equipment used was a RFM300+ refractometer by Bellingham and Stanley. The test samples were added to 60 mL of water, and the dissolution was measured under stirring at 50 rpm using a refractometer with one measurement/second for […]. Every dissolution experiment was performed three times and the average value was calculated. The particle size was 100-200 μm.

[3] = Dissolution kinetics via refractometry for the system sucrose/sodium chloride; conditions: 60 mL of water, room temperature, constant stirring, particle size 63-100 μm
Procedure: Changes in refraction of the solution were measured at room temperature while adding a defined amount of solid material to the solvent (60 mL of water) under constant stirring. The equipment used is composed of a magnetic stirrer and a digital refractive index probe (Fiso technologies) capable of constant measurement. Once the powder is added, refractive indices are recorded as a function of time. This technique was used to compare the dissolution behavior of the sucrose⋅NaCl⋅H2O co-crystal with its pure individual components as well as the physical mixture of the two pure ingredients. The particle size of all solids was standardized to be in between 63-100 μm.
Quantities Used for the Measurements:
Sucrose⋅NaCl⋅H2O co-crystal 2.00 g

In the case of `[Cl-].[Na+]` [NaCl, sodium chloride], the “k, constant of first order dissolution kinetic (crystal area over time)” value (shortened to “k, constant … (crystal area over time)”) [1] is reported as 0.21 s⁻¹, the “10% dissolution reached at” value [2] is reported as 4 s and the “50% dissolution reached at” value [2] is reported as 8 s. For the same molecule, the “90% dissolution reached at” value [2] was 29 s and the “dissolution speed (normalized refractive index versus time, FIG. 7)” value [3] was “dissolves the fastest”.
With `OC[C@H]1OC(O)[C@H](O)[C@@H](O)[C@@H]1O` (stereo partly drawn) [Anhydrous Glucose] the “k, constant … (crystal area over time)” value [1] was 0.14 s⁻¹, the “10% dissolution reached at” value [2] was 6 s and the “50% dissolution reached at” value [2] was 17 s. For the same molecule, the “90% dissolution reached at” value [2] was 289 s.
For `OC[C@H]1O[C@@](CO)(O[C@H]2O[C@H](CO)[C@@H](O)[C@H](O)[C@H]2O)[C@@H](O)[C@@H]1O` [Pure sucrose, (D)-(+)-Sucrose], the “dissolution speed (normalized refractive index versus time, FIG. 7)” value [3] was “dissolves much slower”.
With `O.O.OCC1OC(OC2(CO)OC(CO)C(O)C2O)C(O)C(O)C1O.[Cl-].[Na+]` (stereo not drawn) [sucrose⋅NaCl⋅H2O co-crystal, Sucrose⋅NaCl⋅2 H2O] the “dissolution speed (normalized refractive index versus time, FIG. 7)” value [3] was “dissolved almost as fast”.
In the case of `O.OC[C@H]1O[C@H](O)[C@H](O)[C@@H](O)[C@@H]1O.OC[C@H]1O[C@H](O)[C@H](O)[C@@H](O)[C@@H]1O.[Cl-].[Na+]` [(Glucose)2•NaCl•H2O co-crystal, (α-D-Glucose)2⋅NaCl⋅H2O], the “k, constant … (crystal area over time)” value [1] is reported as 0.19 s⁻¹, the “10% dissolution reached at” value [2] is reported as 6 s and the “50% dissolution reached at” value [2] is reported as 11 s. The “90% dissolution reached at” value [2] was 25 s, the “90% dissolution reached at” value ([2]; listed as (Glucose)2⋅NaCl⋅H2O) was 25 s and the “90% dissolution reached at” value ([2]; listed as (Glucose)2⋅NaCl⋅H2O co-crystals) was no more than 25 s.
With `O.OC[C@H]1O[C@H](O)[C@H](O)[C@@H](O)[C@@H]1O` [Glucose monohydrate, alpha-D-(+)-Glucose monohydrate] the “k, constant … (crystal area over time)” value [1] was 0.08 s⁻¹, the “10% dissolution reached at” value [2] was 6 s and the “50% dissolution reached at” value [2] was 51 s. The “90% dissolution reached at” value [2] was 214 s.
